Key:
[1] = test system: MEFs (129, ROSA26+/-/OG2+/-); assay: Reprogramming of MEFs transduced with Oct4/Sox2/Klf4 or Oct4/Klf4 with CHIR99021; type: cell-based, mouse
Procedure: Cell Culture and Viral Transduction: MEFs were derived from 129S2/SvPasCrlf and ROSA26^+/−/OG2^+/− mice according to the protocol reported on WiCell Research Institute website: “Introduction to human embryonic stem cell culture methods”. ROSA26^+/−/OG2^+/− heterozygous transgenic mice carry GFP reporter gene under the control of the Oct4 promoter (Oct4-GFP) and the ubiquitously expressed neo/lacZ transgene [Do J T, Scholer H R, Stem Cells, 22:941-949 (2004)]. Animal experiments were performed according to the Animal Protection Guidelines of the Max Planck Institute for Biomolecular Research, Germany. MEFs were transduced by Oct4, Klf4 and Sox2 three factors, or two-factor combinations of the pMXs-based retroviruses encoding mouse Oct4, Klf4 and Sox2 (Addgene) as previously described [Takahashi K, Yamanaka S, Cell, 126:663-676 (2006)]. […] MEFs transduced with Oct4/Klf4/Sox2 (lx 10^4 cells/well together with 10^5 cells/well CF1 feeders in 6-well plates) were then treated with GSK-3 inhibitor CHIR99021 (Stemgent) for two weeks, and EGFP positive colonies were picked up at the third week after treatment. MEFs transduced with Oct4/Klf4 (lx 10^5 cells/well in 6-well plates) were treated with 10 μM CHIR99021 for four weeks, GFP positive colonies were picked up and expanded at the fourth to fifth week after treatment.

MEFs = assay: Real-time PCR of pluripotency genes in untransduced MEFs after small molecule treatment; type: cell-based, mouse; settings: 10 μM CHIR99021, three days
Procedure: To detect the expression of pluripotency genes by MEFs and NHEKs that were treated with small molecules, untransduced MEFs and NHEKs were treated for three days in mESC growth medium with 10 μM CHIR99021 or in hES cell medium with either combination of 10 μM CHIR99021 and 2 μM Parnate or combination of 10 μM CHIR99021, 2 μM Parnate, 0.5 μM PD0325901 and 2 μM SB431542. For the semi-quantitative and quantitative RT-PCR analyses, RNA was extracted from miPSCs-OK, hiPSCs-OK, MEFs, treated MEFs and treated NHEKs using the RNeasy Plus Mini Kit in combination with QIAshredder (Qiagene). Reverse transcription was performed with 1 μg RNA using iScript™ cDNA Synthesis Kit (BioRad). […] Real-time PCR was carried out using iQ SYBR Green Supermix (BioRad). […] The expression of genes of interest was normalized to that of GAPDH in all samples.

mouse fibroblasts = assay: Reprogramming of mouse fibroblasts with exogenous poly-Arg transcription factor proteins; type: cell-based; settings: cells incubated with transcription factor proteins plus agent
Procedure: Mouse fibroblasts were grown in mESC medium supplemented with 8 μg/ml of either Oct4/Sox2/Klf4 or Oct4/Sox2/Klf4/Myc (all proteins comprising poly-Arg as described above) for 6-8 hours, washed, and incubated for 2-3 days in mESC media without the above-listed transcription factors. This (4-12 hours with, 1-3 days without) was repeated a number (1, 2, 3, 4, or more) of times and then the cells were cultured in mESC for two weeks.
Mouse fibroblasts were grown in mESC growth medium [Knockout DMEM (Invitrogen) supplemented with 10% ES-FBS+10% KSR, 0.1 mM 2-ME, 1% Glutamax, 1% Non-essential amino acids, 1% EmbryoMax ESC Qualified Nucleosides (Millipore), and 10^3 units/ml LIF (ESGRO, Chemicon International)] supplemented with 8 μg/ml of Oct4/Sox2/Klf4/Myc (all four transcription factors are tagged with poly-Arg […]; SEQ ID NO:2) for 4-12 hours, followed by culturing the cells in the absence of the Oct4/Sox2/Klf4/Myc polypeptides for one day. This procedure was repeated 4 times. The cells were then cultured in mESC medium for another two weeks. iPSC clones were detected by colony morphology and expression of pluripotency markers. An intermediate iPSC clone, which expresses ALP but not Oct4 (Oct4), was dissociated with Trypsin-EDTA. The clone was then expanded by continuous culturing with regular mESC medium or medium supplemented with 0.5 μM PD0325901, 3 μM CHIR99021, 0.5 μM A-83-01. The number of Oct4-positive colonies were counted 2 weeks after small molecule treatment (FIG. 14).

[2] = test system: Normal Human Epidermal Keratinocytes (NHEKs); assay: Reprogramming of lentivirally transduced NHEKs (TRA-1-81 colonies); type: cell-based; settings: 0.25 mM NaB vs 0.5 mM VPA
Text: Among several readily available primary human somatic cell types, keratinocytes that can be easily isolated from human skin or hair follicle represent an attractive cell source for reprogramming, because they endogenously express Klf4 and cMyc, and were reported to be reprogrammed more efficiently using the conventional four TFs or three TFs (without Myc) (Aasen et al., Nat Biotechnol 26, 1276-1284 (2008); Maherali et al., Cell Stem Cell 3, 340-345 (2008)). […] Furthermore, we have shown that such dual pathway inhibition could also enhance reprogramming of human keratinocytes by two exogenous TFs (i.e. OK) with two small molecules, Parnate (an inhibitor of lysine-specific demethylase 1) and CHIR99021 (a GSK3 inhibitor) (Li et al., Stem Cells 27, 2992-3000 (2009)). However, such 2-TFs reprogramming process was very inefficient and complex (e.g. involving two exogenous TFs and four chemicals), and reprogramming with even one less TF appeared daunting. Toward this end, we developed a step-wise strategy in refining reprogramming condition and identifying new reprogramming chemical entities. […]

| SMILES | GFP positive colonies out of 10^5 OG2 MEFs ([1]; Oct4/Klf4 transduction, 10 μM CHIR99021, 4-5 weeks) | reprogramming efficiency (GFP-positive colonies) ([1]; Oct4/Sox2/Klf4-transduced MEFs, about 10 μM, from 0.03-0.08% without) | number of AP-positive mESC-like colonies ([1]; Oct4/Sox2/Klf4 transduced MEFs, two weeks treatment, staining at third week) | expression of Sox2 and Oct4 (real-time PCR) (MEFs) | efficiency and speed of development of pluripotent cells (mouse fibroblasts) | generation of iPSCs under OK condition [2] |
| --- | --- | --- | --- | --- | --- | --- |
| Cc1c[nH]c(-c2cnc(NCCNc3ccc(C#N)cn3)nc2-c2ccc(Cl)cc2Cl)n1 [CHIR99021] | about six | 0.2-0.4 % of transduced MEFs | significantly increased the number of alkaline phosphase (AP)-positive mESC-like colonies in a dose-dependent manner | did not induce the expression of Sox2 and Oct4 in MEFs | improved efficiency and speed of development of pluripotent cells | – |
| CCCC(=O)[O-].[Na+] [NaB, sodium butyrate] | – | – | – | – | – | much more reliable and efficient than the previously reported 0.5 mM VPA |

Reference: patent publication US9771563B2, “Chemical approaches for generation of induced pluripotent stem cells” (The Scripps Research Institute, priority 2008, dated 2017)
